The results in this text go back to publication PMC10386076, “Discovery of RC-752, a Novel Sigma-1 Receptor Antagonist with Antinociceptive Activity: A Promising Tool for Fighting Neuropathic Pain” (Pharmaceuticals, 2023).

The target in one data set is T1, S1R (Cavia porcellus, UniProt Q60492).
T1 construct: tissue Harlan-Winkelmann, Borchen, Germany; host or cells: guinea pig brain membrane homogenate
Kind of data set: S1R radioligand displacement binding assay ([3H]-(+)-pentazocine). Details: species or system guinea pig. The settings on record: for Selectivity (Ki S2R/Ki S1R): ratio Ki S2R/Ki S1R. On the procedure: (R/S)-1a–3e were first evaluated for their binding affinity toward the S1R and S2R in a radioligand displacement assay. […] Nonspecific binding was determined using non-radiolabeled (+)-pentazocine and haloperidol in excess. All the binding experiments were carried out in duplicate. […] Haloperidol was used as a control compound in both assays.
Five guinea pig brains were homogenized with the potter (500–800 rpm, 10 up and down strokes) in 6 volumes of cold 0.32 M sucrose. The suspension was centrifuged at 1200× g for 10 min at 4 °C. […] This procedure was repeated twice. The final pellet was resuspended in 56 volumes of buffer and frozen ([…]) in 1.5 mL portions containing about 1.5 mg protein/mL.
The test compound solutions were prepared by dissolving approximately 10 µmol (usually 2–4 mg) of test compound in dimethyl sulfoxide (DMSO, unless otherwise specified), so that a 10 mM stock solution was obtained. To obtain the required test solutions for the assay, the DMSO stock solution was diluted with the respective assay buffer. The filtermats were presoaked in 0.5% aqueous polyethylenamine solution for 2 h at r.t. before use. All the binding experiments were carried out in duplicate in 96-well multiplates. The concentrations given are the final concentrations in the assay. […] The receptor preparation was always added last. During the incubation, the multiplates were shaken at a speed of 500–600 rpm at the specified temperature. […] During the filtration each well was washed five times with 300 µL of water. Subsequently, the filtermats were dried at 95 °C. The solid scintillator was melted on the dried filtermats at 95 °C for 5 min. After the solidifying of the scintillator at r.t., the trapped radioactivity in the filtermats was measured with the scintillation analyzer. Each position on the filtermat corresponding to one well of the multiplate was measured for 5 min with the [^3H]-counting protocol. The overall counting efficiency was 20%. The IC50 values were calculated with GraphPad Prism 3.0 (GraphPad Software, San Diego, CA, USA) by nonlinear regression analysis. The IC50 values were subsequently transformed into Ki values using the equation of Cheng and Prusoff. All the experiments were carried out in duplicates. Compounds with high S1R affinity were tested in three independent experiments, and their Ki values are given as mean value ± SEM from the three measurements. […] (22.0 Ci/mmol; Perkin-Elmer). […] The nonspecific binding was determined with 10 µM unlabeled (+)-pentazocine.

The next data set has as its system PC12 cells. Nature of the data set: NGF-induced neurite outgrowth assay in PC12 cells. It counts as cell-based. The settings on record: for effect on percentage of differentiated PC12 cells, co-administration with PRE-084: 0.25 μM and 2.5 μM with 10 μM PRE-084, vs PRE-084; for effect on NGF-induced neurite outgrowth, compound alone: 0.25 μM and 2.5 μM, vs NGF. As to the method:
At 80% confluence, the cells were either split to allow a further culture expansion or plated onto 48-well flat-bottom plates previously coated with poly-L-ornithine (Sigma Aldrich, Milan, Italy) at the final concentration of 10 μg/cm^2. The cells were plated at low density (2500 cells/well) to allow proper neurite elongation. The PC12 cells were mechanically detached from the flask to avoid cell-surface receptor cleavage and to preserve the correct binding of NGF to the TrkA receptors. To minimize detachment stress, the cells were left in PM for 24 h to recover. […] PRE-084 (10 µM), an S1R agonist, was used to verify that the effects of the selected compounds were due to the S1R modulation. In CTR conditions, the cells were incubated with the drug vehicle. For all the ligands, two replicates per concentration were performed in at least 3 experiments with different PC12 batches.
After 72 h incubation in DM, the cells were fixed with a 4% paraformaldehyde solution (pH 7.4). To allow the neurite visualization with a bright-field microscope, the cells were stained with the Harris Hematoxylin solution (Sigma Aldrich). After staining, images of six fields per well were acquired with a digital camera linked to a bright-field inverted microscope (Optika) (20× magnification). […] Only the cells bearing a neurite as long as their soma’s diameter were identified as differentiated cells. The number of differentiated cells was expressed as the percentage of differentiated cells over the total number of cells.

A further data set relates to HeLa cells. Kind of data set: AQP-mediated osmotic water permeability assay (stopped-flow light scattering). The settings on record: pre-treatment 20 μM, heat stress 42 °C 3 h. On the procedure:
As an orthogonal assay to determine the functional profile of our compounds, the effect on AQP-mediated water permeability was investigated. AQPs are a family of transmembrane proteins involved in the transport of water and other small molecules (e.g., H2O2) through cell membranes. AQP functions are thus critical in ensuring reactive oxygen species (ROS) scavenging and cell survival. […] Briefly, the osmotic water permeability of HeLa cells was measured by a stopped-flow light scattering method and expressed as a percentage of k relative.
Osmotic water permeability was measured in the HeLa cell suspension by the stopped-flow light scattering method, as previously described. The experiments were performed at 25 °C on the stopped-flow apparatus (RX2000, Applied Photophysics, Leatherhead, UK) with a pneumatic drive accessory (DA.1, Applied Photophysics) straightforwardly coupled with a Varian Cary 50 spectrometer (Varian Australia Pty Ltd., Mulgrave, Australia). Briefly, scattered light intensity with a dead time of 6 ms was recorded at a wavelength of 450 nm. […] To evaluate the effect of the test compounds on water permeability, the HeLa cells were divided into different groups: (1) controls, cells incubated at r.t. (21 °C) in the presence of the same volume of methanol as that of the treated cells; (2) heat-stressed cells, cells heat-treated in a water thermostatic and shacking bath at 42 °C for 3 h; (3) heat-stressed cells pre-treated with the test compounds at a 20 µM final concentration (dissolved in methanol).

T1 sequence (Q60492 whole entry): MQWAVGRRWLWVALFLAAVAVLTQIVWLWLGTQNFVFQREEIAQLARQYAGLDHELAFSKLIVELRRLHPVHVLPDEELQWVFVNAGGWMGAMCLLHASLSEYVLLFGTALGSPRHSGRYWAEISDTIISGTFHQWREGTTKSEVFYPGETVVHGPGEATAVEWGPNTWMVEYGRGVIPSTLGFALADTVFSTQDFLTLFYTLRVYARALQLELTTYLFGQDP

As to `COc1ccc2cc(C(CO)CCN3CCOCC3)ccc2c1` (stereo not drawn) [Compound 3a, 2-(6-methoxynaphthalen-2-yl)-4-morpholinobutan-1-ol], on S1R, affinity was put at a Ki of 324 ± 10 nM and the “Selectivity (Ki S2R/Ki S1R)” value worked out at 4.
Take NGF: the “differentiation, % of PC12 cells” value in the data set with PC12 cells (NGF alone at 2.5 nM) came to 22 ± 2%.
As to `CN(CCC(CO)c1ccc2ccccc2c1)Cc1ccccc1` (stereo not drawn) [Compound 2c, 4-(benzyl(methyl)amino)-2-(naphthalen-2-yl)butan-1-ol], on S1R, the affinity corresponds to a Ki of 9.5 ± 1.8 nM and the “Selectivity (Ki S2R/Ki S1R)” value is reported as 4.
On the same counts, the results for `OCC(CCN1CCC(Cc2ccccc2)CC1)c1ccc(-c2ccccc2)cc1` (stereo not drawn) [Compound 1e, 2-([1,1’-biphenyl]-4-yl)-4-(4-benzylpiperidin-1-yl)butan-1-ol] are 94 ± 12 nM and 2.
Turning to `O=C(OCCN1CCOCC1)C1(c2ccccc2)CCCCC1` [PRE-084, reference compound], in the data set on PC12 cells (PRE-084 at 10 μM, with NGF), the “neurite outgrowth, % of PC12 cells” value is recorded as 36 ± 4%. Further, the “effect on water permeability in heat-stressed HeLa cells” value (shortened to “effect on water permeability”) with HeLa cells was “effective in restoring water permeability”.
Consider `OCC(CCN1CCCCC1)c1ccc2ccccc2c1` (stereo not drawn) [Compound 2d, 2-(naphthalen-2-yl)-4-(piperidin-1-yl)butan-1-ol], for which, at S1R, the Ki (in general, a dissociation constant, usually derived from enzyme kinetics or from competition with a known ligand) worked out at 15 ± 6 nM and the “Selectivity (Ki S2R/Ki S1R)” value stood at 11. Also, in the data set with PC12 cells, the “effect on percentage of differentiated PC12 cells, co-administration with PRE-084” value is reported as “significantly reduced” and the “effect on NGF-induced neurite outgrowth, compound alone” value is given as “did not significantly enhance”. In addition, in the data set on HeLa cells, the “effect on water permeability” value is recorded as “in line with that of S1R antagonists”.
Regarding `CCN(CC)CCC(CO)c1ccc2cc(OC)ccc2c1` (stereo not drawn) [Compound 3b, 4-(diethylamino)-2-(6-methoxynaphthalen-2-yl)butan-1-ol], at S1R, the affinity corresponds to a Ki of 87 ± 28 nM and the “Selectivity (Ki S2R/Ki S1R)” value is reported as 14.
As to `CCN(CC)CCC(CO)c1ccc2ccccc2c1` (stereo not drawn) [Compound 2b, 4-(diethylamino)-2-(naphthalen-2-yl)butan-1-ol], on S1R, the Ki stood at 110 ± 25 nM and the “Selectivity (Ki S2R/Ki S1R)” value is given as 10.
`CCCN(CCC)CCc1ccc(OC)c(OCCc2ccccc2)c1` [NE-100, reference compound]: the “effect on water permeability” value in the data set on HeLa cells is recorded as “has no effect”.
As to `COc1ccc2cc(C(CO)CCN3CCC(Cc4ccccc4)CC3)ccc2c1` (stereo not drawn) [Compound 3e, 4-(4-benzylpiperidin-1-yl)-2-(6-methoxynaphthalen-2-yl)butan-1-ol], on S1R, the affinity corresponds to a Ki of 85 ± 11 nM and the “Selectivity (Ki S2R/Ki S1R)” value is given as 0.6.
On the same counts, the results for `OCC(CCN1CCOCC1)c1ccc2ccccc2c1` (stereo not drawn) [Compound 2a, 4-morpholino-2-(naphthalen-2-yl)butan-1-ol] are 206 ± 37 nM and 31.
The like results for `COc1ccc2cc(C(CO)CCN3CCCCC3)ccc2c1` (stereo not drawn) [Compound 3d, 2-(6-methoxynaphthalen-2-yl)-4-(piperidin-1-yl)butan-1-ol] were, in that order, 38 ± 9 nM and 32.
On the same counts, the results for `COc1ccc2cc(C(CO)CCN(C)Cc3ccccc3)ccc2c1` (stereo not drawn) [Compound 3c, 4-(benzyl(methyl)amino)-2-(6-methoxynaphthalen-2-yl)butan-1-ol] are 20 ± 3 nM and 7.
In the case of `OCC(CCN1CCC(Cc2ccccc2)CC1)c1ccc2ccccc2c1` (stereo not drawn) [Compound 2e, 4-(4-benzylpiperidin-1-yl)-2-(naphthalen-2-yl)butan-1-ol], at S1R, the Ki was 25 ± 4 nM and the “Selectivity (Ki S2R/Ki S1R)” value amounted to 13.
Regarding `OCC(CCN1CCOCC1)c1ccc(-c2ccccc2)cc1` (stereo not drawn) [Compound 1a, 2-([1,1’-biphenyl]-4-yl)-4-morpholinobutan-1-ol], at S1R, the affinity corresponds to a Ki of 13 ± 3 nM and the “Selectivity (Ki S2R/Ki S1R)” value is 24. Also, in the data set with PC12 cells, the “effect on percentage of differentiated PC12 cells, co-administration with PRE-084” value is on record as “significantly reduced” and the “effect on NGF-induced neurite outgrowth, compound alone” value is recorded as “did not significantly enhance”. Moreover, the “effect on water permeability” value in the data set with HeLa cells is reported as “in line with that of S1R antagonists”.
As for `CCN(CC)CCC(CO)c1ccc(-c2ccccc2)cc1` (stereo not drawn) [Compound 1b, 2-([1,1’-biphenyl]-4-yl)-4-(diethylamino)butan-1-ol], on S1R, the Ki stood at 20 ± 4 nM and the “Selectivity (Ki S2R/Ki S1R)” value came to 34.
